The target in test [1] is T1, RNA-binding protein pos-1 (Caenorhabditis elegans, UniProt G5EF15).
T1 sequence (G5EF15 whole entry): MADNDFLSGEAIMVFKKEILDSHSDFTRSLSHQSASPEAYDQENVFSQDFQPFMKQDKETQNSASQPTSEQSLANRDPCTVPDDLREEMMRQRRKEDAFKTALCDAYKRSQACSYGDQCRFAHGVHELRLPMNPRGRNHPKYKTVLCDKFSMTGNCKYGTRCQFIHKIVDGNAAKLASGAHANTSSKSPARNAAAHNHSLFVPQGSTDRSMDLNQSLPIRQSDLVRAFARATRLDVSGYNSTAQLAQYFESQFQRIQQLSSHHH
The test can be described thus: disruptors of C. elegans POS-1 RNA interaction – biochemical, fluorescence polarization, dose response (AID 1964).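 Note: purified POS-1 fused to maltose binding protein made in E. coli; potency of compounds blocking POS-1 binding to fluorescent RNA.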

In test [2] the target is T2, Zinc finger protein mex-5 (Caenorhabditis elegans, UniProt Q9XUB2).
T2 sequence (Q9XUB2 whole entry): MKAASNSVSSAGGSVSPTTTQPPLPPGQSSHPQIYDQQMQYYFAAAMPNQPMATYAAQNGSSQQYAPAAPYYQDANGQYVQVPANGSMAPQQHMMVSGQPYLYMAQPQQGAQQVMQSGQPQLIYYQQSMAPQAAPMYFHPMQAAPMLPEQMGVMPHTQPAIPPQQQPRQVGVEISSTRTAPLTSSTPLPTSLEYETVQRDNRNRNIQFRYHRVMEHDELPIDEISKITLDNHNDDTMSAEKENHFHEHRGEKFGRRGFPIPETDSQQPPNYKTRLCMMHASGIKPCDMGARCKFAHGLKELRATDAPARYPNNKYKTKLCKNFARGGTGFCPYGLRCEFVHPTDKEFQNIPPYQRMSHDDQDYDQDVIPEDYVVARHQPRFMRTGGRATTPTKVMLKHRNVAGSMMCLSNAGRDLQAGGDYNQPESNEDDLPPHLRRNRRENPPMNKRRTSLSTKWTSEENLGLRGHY
The test can be described thus: potency of MEX-5 RNA-binding blockers – biochemical, C. elegans, fluorescence polarization, dose response (AID 1960). On the technique in general: Fluorescence polarisation rises when a labelled molecule tumbles more slowly, as on binding a larger partner.

The test system of a further test is CHO. The test can be described thus: CHO cell viability loss, potency – luminescence, cytotoxicity control for TLR9-MyD88 binding inhibitor project, dose response (AID 588339).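 Note: CHO cells stably coexpressing TLR9 and MyD88 fusions from primary screen; compound exposure lasted 48 hours before viability readout.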 The conditions noted are these: Cricetulus griseus. The format is functional, cell-based, hamster.
The target of the next test is Beta Lactamase (Pseudomonas aeruginosa, UniProt Q932Y6). The experiment in a line: BLA reporter interference, concentration series – BLA reporter cells, FRET fluorescence, artefact control for TLR9-MyD88 binding inhibitor project, dose response (AID 588341).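 Note: cell based assay in CHO-K1 cells stably expressing beta-lactamase.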 The format is cell-based.
Chain of Beta Lactamase (Q932Y6 whole entry): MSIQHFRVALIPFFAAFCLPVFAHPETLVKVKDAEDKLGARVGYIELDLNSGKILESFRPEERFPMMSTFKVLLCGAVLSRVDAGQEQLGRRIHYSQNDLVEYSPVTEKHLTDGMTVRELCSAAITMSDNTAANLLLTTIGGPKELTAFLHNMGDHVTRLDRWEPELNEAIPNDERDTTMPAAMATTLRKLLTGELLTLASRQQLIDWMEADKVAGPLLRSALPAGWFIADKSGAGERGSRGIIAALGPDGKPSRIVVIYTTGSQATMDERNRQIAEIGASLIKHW
Test [3] addresses T3, Corticotropin-releasing factor receptor 2/Corticotropin-releasing factor-binding protein (Homo sapiens, UniProt P24387+Q13324).
T3 sequence (Q13324 whole entry): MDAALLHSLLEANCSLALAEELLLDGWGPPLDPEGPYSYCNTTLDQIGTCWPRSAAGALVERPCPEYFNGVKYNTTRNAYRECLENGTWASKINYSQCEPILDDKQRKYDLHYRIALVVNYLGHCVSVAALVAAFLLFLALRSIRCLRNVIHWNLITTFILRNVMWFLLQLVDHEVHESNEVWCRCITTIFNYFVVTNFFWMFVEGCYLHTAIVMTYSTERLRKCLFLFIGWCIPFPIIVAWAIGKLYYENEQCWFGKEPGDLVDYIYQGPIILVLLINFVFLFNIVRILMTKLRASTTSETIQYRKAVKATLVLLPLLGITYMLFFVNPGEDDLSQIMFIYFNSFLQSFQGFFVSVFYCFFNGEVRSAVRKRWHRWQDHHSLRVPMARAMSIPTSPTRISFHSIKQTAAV
T3 sequence (P24387 whole entry): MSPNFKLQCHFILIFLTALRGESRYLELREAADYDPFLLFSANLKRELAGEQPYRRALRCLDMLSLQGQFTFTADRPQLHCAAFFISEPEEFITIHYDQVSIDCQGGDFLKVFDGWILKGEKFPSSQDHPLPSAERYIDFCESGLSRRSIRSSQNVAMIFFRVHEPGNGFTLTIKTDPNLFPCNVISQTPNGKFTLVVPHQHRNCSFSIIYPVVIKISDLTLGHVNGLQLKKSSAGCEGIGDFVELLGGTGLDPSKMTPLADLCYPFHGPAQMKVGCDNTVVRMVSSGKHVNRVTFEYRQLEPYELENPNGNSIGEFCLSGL
The test can be described thus: activators of CRF receptor 2 with binding protein – uHTS hits, confirmation (AID 602473). The format is functional. Particulars: read-out: EC50_Mean.

Test [4] deals with T4, Interleukin-8 (Homo sapiens, UniProt P10145).
T4 sequence (P10145 whole entry): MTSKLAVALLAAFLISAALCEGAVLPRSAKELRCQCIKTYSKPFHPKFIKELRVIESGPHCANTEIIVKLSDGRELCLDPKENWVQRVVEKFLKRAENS
The experiment in a line: Dose Response confirmation of uHTS small molecule hits for cystic fibrosis induced NFkb Inhibitors in a TNFa-induced IL8 counterscreen. The conditions noted are these: read-out: IC50_Mean. The format is functional. In general terms: The purpose of a counterscreen is to sort out artefacts and off-target activity.

Test [5] has as its target T4, Interleukin-8. The experiment in a line: Dose Response confirmation of uHTS small molecule hits for cystic fibrosis induced NFkb Inhibitors in a PAF-induced IL8 counterscreen. It is filed as functional. Particulars: read-out: IC50_Mean.
Test [6] concerns the target T5, Apoptotic protease-activating factor 1 (Homo sapiens, UniProt O14727).
T5 sequence (O14727 whole entry): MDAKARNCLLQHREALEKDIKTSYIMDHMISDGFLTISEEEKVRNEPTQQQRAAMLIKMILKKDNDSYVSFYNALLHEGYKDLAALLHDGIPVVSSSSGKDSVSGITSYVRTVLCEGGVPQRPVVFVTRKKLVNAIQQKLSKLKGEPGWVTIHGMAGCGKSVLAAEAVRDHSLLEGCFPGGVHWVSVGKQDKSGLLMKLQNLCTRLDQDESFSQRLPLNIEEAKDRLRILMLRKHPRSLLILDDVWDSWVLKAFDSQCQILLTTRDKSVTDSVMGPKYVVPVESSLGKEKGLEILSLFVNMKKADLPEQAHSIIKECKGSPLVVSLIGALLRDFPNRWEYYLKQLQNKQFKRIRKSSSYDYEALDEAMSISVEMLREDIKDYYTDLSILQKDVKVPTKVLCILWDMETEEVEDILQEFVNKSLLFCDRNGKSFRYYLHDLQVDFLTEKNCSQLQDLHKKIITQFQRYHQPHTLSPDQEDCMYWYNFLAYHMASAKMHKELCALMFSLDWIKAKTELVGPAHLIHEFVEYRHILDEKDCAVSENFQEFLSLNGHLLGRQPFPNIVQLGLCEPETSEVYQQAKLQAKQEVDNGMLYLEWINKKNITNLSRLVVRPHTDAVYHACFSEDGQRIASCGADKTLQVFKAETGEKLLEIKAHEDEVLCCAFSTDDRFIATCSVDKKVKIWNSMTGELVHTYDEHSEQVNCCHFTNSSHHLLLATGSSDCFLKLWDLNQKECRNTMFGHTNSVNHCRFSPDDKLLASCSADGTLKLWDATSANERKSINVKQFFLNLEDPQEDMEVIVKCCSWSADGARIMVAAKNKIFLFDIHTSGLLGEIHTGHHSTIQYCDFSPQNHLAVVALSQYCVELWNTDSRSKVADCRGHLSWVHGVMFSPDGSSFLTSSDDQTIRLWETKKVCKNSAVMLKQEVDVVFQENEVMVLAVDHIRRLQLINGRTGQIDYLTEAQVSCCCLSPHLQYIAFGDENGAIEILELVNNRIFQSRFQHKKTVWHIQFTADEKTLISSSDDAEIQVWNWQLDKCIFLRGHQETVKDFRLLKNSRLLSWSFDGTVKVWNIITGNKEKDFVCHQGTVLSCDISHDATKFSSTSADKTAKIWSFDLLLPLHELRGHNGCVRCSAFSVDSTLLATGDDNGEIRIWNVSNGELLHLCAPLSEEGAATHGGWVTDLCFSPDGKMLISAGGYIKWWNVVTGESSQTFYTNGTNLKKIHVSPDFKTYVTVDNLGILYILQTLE
The experiment in a line: SAR analysis of small molecule inhibitors of Apaf-1 in a Fluorescent assay. It is filed as functional. The conditions noted are these: read-out: IC50_Mean.

Test [7] concerns the target T6, Low molecular weight phosphotyrosine protein phosphatase (Homo sapiens, UniProt P24666).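 Note: Dose-response confirmation assay measuring inhibition of LMPTP enzyme activity by fluorescence intensity read-out.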
T6 sequence (P24666 whole entry): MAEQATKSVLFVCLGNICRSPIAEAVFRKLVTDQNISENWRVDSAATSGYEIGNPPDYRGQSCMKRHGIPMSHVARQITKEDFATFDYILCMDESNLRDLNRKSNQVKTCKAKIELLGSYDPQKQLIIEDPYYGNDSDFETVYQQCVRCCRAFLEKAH
The format is functional. Particulars: read-out: IC50_Mean.

Test [8] has as its target T5, Apoptotic protease-activating factor 1. The experiment in a line: SAR analysis of small molecule Activators of Apaf-1 in a Fluorescent assay. The format is functional. The conditions noted are these: read-out: EC50_Mean.
For the next test, the system named is Vero. The test can be described thus: cells. Particulars: Chlorocebus sabaeus. The format is functional.
The target of test [9] is T7, Probable nicotinate-nucleotide adenylyltransferase (Staphylococcus aureus (strain N315), UniProt P65502). It is filed as functional, Staphylococcus aureus subsp. aureus N315.
T7 sequence (P65502 whole entry): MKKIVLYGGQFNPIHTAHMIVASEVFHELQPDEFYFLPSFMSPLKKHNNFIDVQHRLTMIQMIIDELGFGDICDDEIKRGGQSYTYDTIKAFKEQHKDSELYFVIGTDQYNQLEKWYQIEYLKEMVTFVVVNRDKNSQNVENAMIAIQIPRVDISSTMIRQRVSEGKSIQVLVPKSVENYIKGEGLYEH
In test [10] the target is T7, Probable nicotinate-nucleotide adenylyltransferase. The format is functional, Staphylococcus aureus subsp. aureus N315. The conditions noted are these: read-out: IC50_Mean.
The target in test [11] is T8, ATP-dependent translocase ABCB1 (Homo sapiens, UniProt P08183). The experiment in a line: inhibition of BCRP-mediated JC-1 efflux – Ig-MXP3 cells, flow cytometry, set 2, dose response (AID 504566).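 Note: flow cytometry median green fluorescence of retained JC-1 dye; potency of efflux pump inhibition measured as rising substrate retention.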 The conditions noted are these: read-out: EC50_MICROM_. The format is functional. In general terms: A flow cytometer gives signals particle by particle.
T8 sequence (P08183 whole entry): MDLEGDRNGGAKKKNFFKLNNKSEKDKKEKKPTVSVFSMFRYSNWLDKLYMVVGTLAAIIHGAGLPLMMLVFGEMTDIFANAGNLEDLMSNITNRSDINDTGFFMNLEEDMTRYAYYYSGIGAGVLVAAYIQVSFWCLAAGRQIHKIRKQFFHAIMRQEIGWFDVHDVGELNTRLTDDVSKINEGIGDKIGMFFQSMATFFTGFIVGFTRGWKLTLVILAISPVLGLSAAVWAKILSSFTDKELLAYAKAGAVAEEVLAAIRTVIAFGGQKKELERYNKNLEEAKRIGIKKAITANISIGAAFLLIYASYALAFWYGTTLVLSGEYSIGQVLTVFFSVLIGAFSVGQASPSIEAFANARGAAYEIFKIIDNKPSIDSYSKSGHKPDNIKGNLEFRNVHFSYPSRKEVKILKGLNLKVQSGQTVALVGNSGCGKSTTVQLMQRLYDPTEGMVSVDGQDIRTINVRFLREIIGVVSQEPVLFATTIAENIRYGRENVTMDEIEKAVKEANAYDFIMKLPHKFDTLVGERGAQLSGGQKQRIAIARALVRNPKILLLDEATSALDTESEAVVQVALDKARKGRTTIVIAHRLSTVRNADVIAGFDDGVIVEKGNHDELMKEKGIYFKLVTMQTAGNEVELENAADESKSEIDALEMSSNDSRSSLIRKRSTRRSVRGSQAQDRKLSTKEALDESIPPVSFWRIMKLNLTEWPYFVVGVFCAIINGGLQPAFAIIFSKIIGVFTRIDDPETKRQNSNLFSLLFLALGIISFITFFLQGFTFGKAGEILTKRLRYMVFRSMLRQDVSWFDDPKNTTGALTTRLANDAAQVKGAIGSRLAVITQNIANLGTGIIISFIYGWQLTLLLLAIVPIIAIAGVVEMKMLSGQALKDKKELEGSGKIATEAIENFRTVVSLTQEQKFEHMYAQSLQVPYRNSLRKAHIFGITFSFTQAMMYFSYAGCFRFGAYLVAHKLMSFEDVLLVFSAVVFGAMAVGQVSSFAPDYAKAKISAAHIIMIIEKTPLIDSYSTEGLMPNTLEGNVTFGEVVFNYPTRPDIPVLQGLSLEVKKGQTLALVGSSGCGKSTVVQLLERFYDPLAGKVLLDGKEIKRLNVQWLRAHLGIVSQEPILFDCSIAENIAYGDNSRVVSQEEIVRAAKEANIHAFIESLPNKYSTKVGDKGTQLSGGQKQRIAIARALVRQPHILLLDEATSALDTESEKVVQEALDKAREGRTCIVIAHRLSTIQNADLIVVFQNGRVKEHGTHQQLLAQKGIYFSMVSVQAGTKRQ
For test [12], the target named is T8, ATP-dependent translocase ABCB1. The experiment in a line: P-gp JC-1 efflux blockade concentration-response – Jurkat-DNR cells, flow cytometry, set 2, dose response (AID 504569).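 Note: potency of pump inhibitors that raise cellular JC-1 green fluorescence up to the nicardipine level.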 The format is functional. The conditions noted are these: read-out: EC50_MICROM_.
Test [13] can be described thus: intracellular Trypanosoma cruzi inhibitors in host cells – cell-based, plate reader, cherry-pick samples, set 3, dose response (AID 651818).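 Note: compounds incubated with infected cells for about four days.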 The format is functional.
Test [14] addresses Hepatocyte nuclear factor 4-alpha (Homo sapiens, UniProt P41235). The format is functional, cell-based.
Test [15] is described as follows: HEK293 cell viability loss – plate reader, cherry-pick, cytotoxicity control, dose response (AID 651899). It is filed as functional, cell-based.
In test [16] the target is T9, Adenosylmethionine-8-amino-7-oxononanoate aminotransferase (Mycobacterium tuberculosis, UniProt P9WQ81).
T9 sequence (P9WQ81 whole entry): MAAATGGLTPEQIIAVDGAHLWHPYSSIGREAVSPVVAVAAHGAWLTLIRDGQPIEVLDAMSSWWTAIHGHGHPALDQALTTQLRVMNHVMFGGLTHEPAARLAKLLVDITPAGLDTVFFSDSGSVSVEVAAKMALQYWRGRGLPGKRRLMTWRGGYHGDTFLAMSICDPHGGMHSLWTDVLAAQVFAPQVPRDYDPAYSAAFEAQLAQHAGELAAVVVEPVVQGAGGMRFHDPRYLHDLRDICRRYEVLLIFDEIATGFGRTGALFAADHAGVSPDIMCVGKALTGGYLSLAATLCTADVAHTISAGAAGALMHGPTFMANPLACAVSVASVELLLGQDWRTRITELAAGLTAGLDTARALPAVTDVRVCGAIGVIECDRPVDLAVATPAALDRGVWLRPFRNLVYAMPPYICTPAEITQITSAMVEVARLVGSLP
The test can be described thus: Mycobacterium tuberculosis BioA enzyme inhibitor Measured in Biochemical System Using Plate Reader - 2163-02_Inhibitor_Dose_CherryPick_Activity. The format is functional, Mycobacterium tuberculosis UT205.

The source made the active and inactive calls. Bounds are passed on as bounds.

Chain of Hepatocyte nuclear factor 4-alpha (P41235 whole entry): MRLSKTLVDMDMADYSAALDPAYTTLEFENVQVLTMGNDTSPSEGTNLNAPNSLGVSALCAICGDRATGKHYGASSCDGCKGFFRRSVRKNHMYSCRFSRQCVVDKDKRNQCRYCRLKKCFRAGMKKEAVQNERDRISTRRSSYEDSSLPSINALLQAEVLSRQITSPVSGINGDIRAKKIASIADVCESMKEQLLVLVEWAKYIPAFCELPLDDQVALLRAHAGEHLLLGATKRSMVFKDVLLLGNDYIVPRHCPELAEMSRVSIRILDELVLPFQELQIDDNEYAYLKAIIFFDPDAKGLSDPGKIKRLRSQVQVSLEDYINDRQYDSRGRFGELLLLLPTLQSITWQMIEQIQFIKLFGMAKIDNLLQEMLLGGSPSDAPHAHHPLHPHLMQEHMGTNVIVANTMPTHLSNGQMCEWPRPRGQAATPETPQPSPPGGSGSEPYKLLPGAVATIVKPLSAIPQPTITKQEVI

With `COc1ccc(C(=O)c2sc3nc(C)cc(-c4cccs4)c3c2N)cc1`, the EC50 was 16.9 µM (active) in test [1], 11 µM (active) in test [2] and 6.58 µM (active) in test [3]. Also, the figures for the IC50 with CHO and on Beta Lactamase were > 49.7 µM (inactive) and 3.85 µM (active), respectively.

On to `O=C(Nc1ccc(N2CCN(C(=O)c3ccccc3F)CC2)cc1)c1cncc(Br)c1`, for which the results for the IC50 at Interleukin-8 [4] and at Interleukin-8 [5] were > 79 µM (inactive) and 6.77 µM (active), respectively.

For the compound `O=C(Nc1ccc2nc(-c3ccc(Br)o3)[nH]c2c1)c1cccs1`, in test [6], the IC50 was > 100 µM (inactive).

Take `CCn1cc(C(=O)O)c(=O)c2cc(F)c(N3CCN(C(=S)NC(=O)c4c(OC)cccc4OC)CC3)cc21`: the IC50 in test [7] was 14 µM (active).

For `O=C(O)[C@@H]1COC(c2ccc(F)cc2F)=N1`, the EC50 in [8] is > 100 µM (inactive).

The CC50 is the concentration that lowers cell viability or growth by half. Consider `COc1cc(/C=C/c2ccc3c(Br)cc(Br)c(O)c3n2)ccc1O`, for which the IC50 with CHO was 7.79 µM (active); at Beta Lactamase, 7.68 µM (active); in test [9], 10.1 µM (active); in test [10] it was 44.9 µM (active). Besides, the CC50 in the test with Vero was 13.4 µM (active).

In the case of `O=C(c1cccnc1)N1CCN(c2cc(-c3ccccc3)nc3cc(-c4cccc(Cl)c4)nn23)CC1`, the EC50 is 0.37 µM (active) in [11] and 0.52 µM (active) in test [12].

The AC50 is the concentration giving half of the maximal activity seen. As to `C[C@@H]1CN([C@@H](C)CO)C(=O)Cc2cc(NS(=O)(=O)c3ccc(Cl)cc3)ccc2O[C@@H]1CN(C)Cc1ccc(Cl)c(Cl)c1`, in test [13], the AC50 was 5.1 µM (active).

Regarding `O=C(NC1CCCCC1)C(c1ccccc1)n1c(=O)c(-c2ccco2)nc2ccccc21` (configuration not stated), in test [14], the IC50 was 0.817 µM (active).

`COc1ccccc1S(=O)(=O)N1CC[C@@H]2[C@H](CO)Nc3ccc(-c4ccccc4)cc3[C@@H]21`: the AC50 in test [15] is 19.3 µM (active); in [16] it was 16.5 µM (active).

Consider `O=C1c2cc(Cl)ccc2-n2c1nc1ccccc1c2=O`, for which, in test [6], the IC50 is 60.3 µM (active).

The record behind these values is ChEMBL document CHEMBL1201862, “PubChem BioAssay data set” (2004).
